Experimental data as given in patent US20200108043A1, “COMPOUNDS AND COMPOSITIONS FOR EXTENDING LIFESPAN OF A SUBJECT” (YALE UNIVERSITY, priority 2017, published 2020).
Entries after “also recorded” stand apart in the source; their conditions may differ. Structures can show the parent of a compound that is named as a salt.

These compounds were tested on Saccharomyces cerevisiae (assay: High-Life (High throughput replicative Lifespan measurement) flow cytometry assay in MEP yeast). Details: 10 μM, 24 hours in culture, 3-4 replicate wells, repeat of screen hits.
Format: cell-based
Procedure: Cells were labeled with NHS-fluorescein as described above, then diluted to 20 cells/μL in media. 80 μL/well was aliquoted to 384-well plates, which were covered with a breathable membrane and placed on a shaker platform in a humidified incubator. After 3 hours, the plates were removed from the incubator and each well was treated with 20 μL pre-warmed, 30° C. 5 μM β-estradiol in media. In the case of ibuprofen or compound-treated wells, the compound was diluted in this volume at a 5× concentration to achieve a final concentration of 10 μM, or 100 μM for ibuprofen. The plates were then returned to the incubator. At indicated times, one plate was removed from the incubator and placed on an autosampler cooled to 8° C. attached to a Stratedigm flow cytometer. The cytometer was set to automatically add and mix 20 μL of aqueous solution containing 60 μg/mL CF405M-WGA (Biotium 29028) and propidium iodide (Sigma P4864) prior to acquiring 80 μL of sample for each well.
In order to test the lifespan of model organisms on both a large-scale and with quick turn-around, a massively multiplexed method was developed to measure replicative lifespan in the short-lived model organisms Saccharomyces cerevisiae. The protocol uses green-fluorescent labeling to identify progenitor cells, red-fluorescent labeling to differentiate non-viable cells, and blue-fluorescent labeling of bud scars to determine replicative age (FIG. 1). Each parameter is measured using a flow cytometer.
To achieve high throughput, the measurement system was automated, and the assay was performed in 384-well plates. The assay was performed using an autosampler-equipped flow cytometer, in a volume of 100 μL. Growth of even a single cell and its progeny in such a small volume will result in nutrient starvation before the natural replicative lifespan is exhausted; therefore to circumvent this issue, High-Life experiments were performed in the background of the Mother Enrichment Program (MEP) (Lindstrom and Gottschling, Genetics. 2009 October; 183(2):413-22). MEP strains express a CRE recombinase fused to an estrogen-binding domain for only a short time after birth. In the presence of β-estradiol, the recombinase translocates to the nucleus where it can excise two essential genes that have been modified to contain the exogenous LoxP sequence. Addition of β-estradiol to the media thus renders newborn daughters inviable without affecting existing mother cells, preventing exponential growth of the cell population and nutrient depletion (FIG. 2A).
The High-Life method was then tested to determine if it was suitable to screening for compounds that extend replicative lifespan. […] The effect of these compounds on High-Life readings was assayed after 24 hours in culture at 10 μM concentration. As a positive control, ibuprofen was used.
`N.N.[Cl][Pt][Cl]` [cisplatin] was tested, and the “average High-Life readings (progenitor fraction viable vs CF405M intensity) relative to controls” value was “at least slightly above controls”.
With `O=C(O)c1cc(=O)c2c(OCC(O)COc3cccc4oc(C(=O)O)cc(=O)c34)cccc2o1` [cromolyn sodium] the “average High-Life readings (progenitor fraction viable vs CF405M intensity) relative to controls” value was “at least slightly above controls”.
`CN1CCc2cccc3c2[C@H]1Cc1ccc(O)c(O)c1-3` [e hydrochloride] was tested, and the “average High-Life readings (progenitor fraction viable vs CF405M intensity) relative to controls” value was “at least slightly above controls”.
In the case of `Cc1ccc(Cl)c(Nc2ccccc2C(=O)O)c1Cl` [meclofenamate sodium], the “average High-Life readings (progenitor fraction viable vs CF405M intensity) relative to controls” value is reported as “at least slightly above controls”.
`Cn1c([N+](=O)[O-])cnc1COC(N)=O` [ronidazole] was tested, and the “average High-Life readings (progenitor fraction viable vs CF405M intensity) relative to controls” value was “at least slightly above controls”.
In the case of `CC(=O)OCC(=O)NCCCOc1cccc(CN2CCCCC2)c1` [roxatidine acetate hydrochloride], the “average High-Life readings (progenitor fraction viable vs CF405M intensity) relative to controls” value is reported as “at least slightly above controls”.

Same assay, conditions: 100 μM ibuprofen vs untreated, multiple time points 0-48 h
In the case of `CC(C)Cc1ccc(C(C)C(=O)O)cc1` (centres unmarked) [ibuprofen], the “replicative lifespan (High-Life)” value is reported as “increase in replicative lifespan was observed”.

Same assay, conditions: testing conditions identical to Example 3 (10 μM, 24 hours)
`COc1c(C)c2c(c(O)c1CC1CC1(C)CCC(=O)O)C(=O)OC2` (centres unmarked) [3-(2-((4-Hydroxy-6-methoxy-7-methyl-3-oxo-1,3-dihydroisobenzofuran-5-yl)methyl)-1-methylcyclopropyl)propanoic acid] was tested, and the “lifespan extending properties (High-Life)” value was “measurable lifespan extension in initial tests”.
For `COc1c(C)c2c(c(O)c1C/C=C(\C)CCC(=O)NCc1ccncc1)C(=O)OC2` [(E)-6-(4-hydroxy-6-methoxy-7-methyl-3-oxo-1,3-dihydroisobenzofuran-5-yl)-4-methyl-N-(pyridin-4-ylmethyl)hex-4-enamide], the “lifespan extending properties (High-Life)” value was “at least some lifespan extending properties; also recorded: measurable lifespan extension in initial tests”.
In the case of `Cn1cnc([N+](=O)[O-])c1Sc1ncnc2nc[nH]c12` [Azathioprine], the “lifespan extending properties (High-Life)” value is reported as “at least some lifespan extending properties”.
For `CN(C)CCCN1c2ccccc2Sc2ccc(Cl)cc21` [Chlorpromazine], the “lifespan extending properties (High-Life)” value was “at least some lifespan extending properties”.
`Cc1oncc1C(=O)Nc1ccc(C(F)(F)F)cc1` [Leflunomide] was tested, and the “lifespan extending properties (High-Life)” value was “at least some lifespan extending properties”.
With `CN(Cc1cnc2nc(N)nc(N)c2n1)c1ccc(C(=O)N[C@@H](CCC(=O)O)C(=O)O)cc1` [Methotrexate] the “lifespan extending properties (High-Life)” value was “at least some lifespan extending properties”.
`NC(=O)c1ncn([C@@H]2O[C@H](CO)[C@@H](O)[C@H]2O)c1O` [Mizoribine] was tested, and the “lifespan extending properties (High-Life)” value was “at least some lifespan extending properties”.
In the case of `Nc1nc2[nH]cc(CCc3ccc(C(=O)N[C@@H](CCC(=O)O)C(=O)O)cc3)c2c(=O)[nH]1` [Pemetrexed], the “lifespan extending properties (High-Life)” value is reported as “at least some lifespan extending properties”.
In the case of `N=C(N)c1ccc(OCCCCCOc2ccc(C(=N)N)cc2)cc1` [Pentamidine], the “lifespan extending properties (High-Life)” value is reported as “at least some lifespan extending properties”.
In the case of `CCN(CC)CCCC(C)Nc1c2ccc(Cl)cc2nc2ccc(OC)cc12` (centres unmarked) [Quinacrine], the “lifespan extending properties (High-Life)” value is reported as “at least some lifespan extending properties”.
In the case of `Cc1cc(NS(=O)(=O)c2ccc(N)cc2)no1` [Sulfamethoxazole], the “lifespan extending properties (High-Life)” value is reported as “at least some lifespan extending properties”.
`COc1cc(Cc2cnc(N)nc2N)cc(OC)c1OC` [Trimethoprim] was tested, and the “lifespan extending properties (High-Life)” value was “at least some lifespan extending properties”.

Same assay, conditions: testing conditions identical to Example 3 (10 μM, 24 hours); listed as 3-(2-((4-Hydroxy-6-methoxy-7-methyl-2-oxo-1,3-dihydroisobenzofuran-5-yl)methyl)-
`COc1c(C)c2c(c(O)c1CC1CC1(C)CCC(=O)O)C(=O)OC2` (centres unmarked) [3-(2-((4-Hydroxy-6-methoxy-7-methyl-3-oxo-1,3-dihydroisobenzofuran-5-yl)methyl)-1-methylcyclopropyl)propanoic acid] was tested, and the “lifespan extending properties (High-Life)” value was “at least some lifespan extending properties”.
